Measurements published in US20050080054A1, “Treating androgen decline in aging male (ADAM)-associated conditions with SARMS” (priority 2002, published 2005).

Columns and labels:
Format in all cases: in vivo, rat
[1] = Plasma testosterone levels in male rats of varying hormonal status; details: 0.5 mg/day; for Plasma testosterone levels: osmotic pump, 14 days, n = 5
Excerpt: (§1) Compound VI and Compound VII were synthesized and characterized in the laboratory of Dr. Duane Miller at the University of Tennessee, Memphis, Tenn. Male Sprague-Dawley rats were purchased from Harlan Biosciences (Indianapolis, Ind.). The animals were maintained on a 12-h cycle of light and dark with food and water available ad libitum. All animal studies were reviewed and approved by the Animal Care and Use Committee of The Ohio State University, and conformed to the Principles of Laboratory Animal Care (NIH publication #85-23, revised 1985). Immature male Sprague-Dawley rats weighing 187 to 214 g were randomly distributed into 9 groups of 5 animals. One day before the initiation of drug treatment, groups 4 through 6 and groups 7 through 9 received unilateral or bilateral orchidectomy, respectively, via a midline scrotal incision. […] All drugs given to animals were freshly prepared as solutions in polyethylene glycol 300 (PEG 300). Groups 4 and 7 received treatment with vehicle alone (i.e., PEG 300). Animals in groups 3, 6, and 9 received testosterone propionate (TP, 0.5 mg/day) via implantation of subdermal osmotic pumps (Model 2002, Durect Corporation, Palo Alto, Calif.). Animals in groups 2, 5, and 8 received Compound VI or Compound VII (0.5 mg/day) via implantation of subdermal osmotic pumps. After 14 days of drug treatment, rats were weighed, anesthetized, and sacrificed. Blood samples were collected by venipuncture of the abdominal aorta. Plasma samples were analyzed for testosterone, FSH, LH and osteocalcin. Testosterone concentrations were measured by AniLytics Inc. (Gaithersburg, Md.). FSH and LH levels were measured by the National Hormone and Peptide Program (Dr. A F Parlow, UCLA, CA). Plasma osteocalcin levels were determined using a commercially available rat osteocalcin EIA kit from Biomedical Technologies Inc. (Stoughton, Mass.). The ventral prostates, seminal vesicles, and levator ani muscle were removed and weighed. Osmotic pumps were also removed from animals to check for correct pump operation. The weights of all organs were normalized to body weight, and analyzed for any statistically significant differences between groups using single-factor ANOVA with the alpha value set a priori at p<0.05. The weights of prostates and seminal vesicles were used as indices for evaluation of androgenic activity, and the levator ani muscle weight was used to evaluate the anabolic activity. Statistical analyses of parameters from complete blood count or serum chemical profiling, wherever applicable, were performed by single-factor ANOVA with the alpha value set a priori at p<0.05.

[2] = test system: myosin heavy chain (MHC) IIb mRNA; assay: Myosin heavy chain (MHC) IIb mRNA expression in masseter muscle by RT-PCR; details: masseter muscle of intact female rats; untreated control = 100%
Excerpt: MHC is the predominant protein in skeletal muscle encoded by a multigene family expressed in a tissue-specific and developmentally regulated manner [Adams et al 1999]. In steady state, mRNA expression usually parallels the pattern of MHC protein expression. Because transcription of MHC mRNA occurs in advance of MHC protein translation, and the increased sensitivity of RT-PCR compared to western blotting, rapid changes in mRNA expression can be detected and used to analyze the subtle dynamic effects of muscle anabolism [Wright et al 1997].
The masseter muscle dissected from untreated intact female rats was set as the control level (representing 100%) of MHC IIb expression (FIG. 7A). Intact female rats treated with androgens were evaluated against the untreated controls for the effect of treatment on MHC IIb from masseter.

[3] = test system: female rats after ovariectomy; assay: Bone mineral content (DEXA) in female rats after ovariectomy
Experimental: (§2) One hundred ten female rats were assigned to one of eleven treatment groups. Groups 1-8 were ovariectomized on day one of the study. Groups 9-11 were intact animals. Groups 1-6 received Compound VI by daily subcutaneous injection at doses of 0.1, 0.3, 0.5, 0.75, 1.0, and 3 mg/day, respectively. Groups 7 and 11 received dihydrotestosterone (DHT) at a dose of 1 mg/day. Groups 8 and 9 were ovariectomized and intact control groups, respectively. Group 10 received Compound VI at a dose of 1.0 mg/day. All animals were treated for 120 days. Bone mineral content (BMC) was determined using dual energy x-ray absorptiometry (DEXA) on days 1, 30, 60, 90, and 120.

[4] = test system: female rats after ovariectomy; assay: Bone biomechanical strength, cortical thickness, trabecular density and muscle mass in ovariectomized and intact female rats
Experimental: as §2

[5] = Plasma LH levels in male rats of varying hormonal status; details: 0.5 mg/day; for Plasma LH levels: 14 days, n = 5
Excerpt: as §1

For CC(=O)Nc1ccc(OC[C@](C)(O)C(=O)Nc2ccc([N+](=O)[O-])c(C(F)(F)F)c2)cc1 [Compound VI], the Plasma testosterone levels ([1]; castrated male rats) was 0.066 ± 0.148 ng/mL, the Plasma testosterone levels ([1]; hemi-orchidectomized male rats) was 1.404 ± 0.810 ng/mL and the Plasma testosterone levels ([1]; intact male rats) was 1.830 ± 0.510 ng/mL. The “effect on testosterone levels” value ([1]; intact, hemi-orchidectomized or castrated male rats) was “did not affect testosterone levels”, the “MHC type IIb transcription, of untreated control” value [2] was 137% and the “whole body BMC” value ([3]; FIG. 9) was “increased whole body BMC in a dose-dependent and time-dependent manner”. The “effect at L2-L4 vertebra and proximal femur” value ([3]; FIG. 10) was “protective effect”, the “potency comparison Compound VI versus DHT” value ([3]; ovariectomized female rat bone model) was “more potent than DHT” and the “bone resorption” value ([3]; ovariectomized female rats, 120 days) was “inhibited bone resorption”. For the same compound, the “increase in BMC” value ([3]; ovariectomized female rats, 0.1 mg/day s.c. daily, treated for 120 days (group 1)) was 22.9%, the “increase in BMC” value ([3]; ovariectomized female rats, 0.3 mg/day s.c. daily, treated for 120 days (group 2)) was 26.0% and the “increase in BMC” value ([3]; ovariectomized female rats, 0.5 mg/day s.c. daily, treated for 120 days (group 3)) was 28.5%. For the same compound, the “increase in BMC” value ([3]; ovariectomized female rats, 0.75 mg/day s.c. daily, treated for 120 days (group 4)) was 30.5%, the “increase in BMC” value ([3]; ovariectomized female rats, 1.0 mg/day, treated for 120 days (group 5; DHT 1 mg/day)) was 30.0% and the “increase in BMC” value ([3]; ovariectomized female rats, 3 mg/day s.c. daily, treated for 120 days (group 6)) was 40.1%. For the same compound, the “biomechanical strength of the L5 vertebra and femur” value ([4]; FIG. 11) was “increased biomechanical strength”, the “cortical thickness in the femoral mid-shaft” value ([4]; FIG. 12) was “increased cortical thickness” and the “trabecular bone loss in the distal femur” value ([4]; OVX animals) was “only partially prevented trabecular bone loss”. For the same compound, the “muscle mass” value ([4]; gonadectomized and intact animals) was “increased muscle mass”, the “trabecular density of the distal femur” value ([4]; intact animals) was “proliferative effect” and the “effect on plasma LH levels” value ([5]; TP statement for castrated male rats) was “no effect”. For the same compound, the “Plasma LH levels” value ([5]; castrated male rats) was 8.644 ± 2.799 ng/mL, the “Plasma LH levels” value ([5]; hemi-orchidectomized male rats) was 0.124 ± 0.115 ng/mL and the “Plasma LH levels” value ([5]; intact male rats) was 0.026 ± 0.037 ng/mL.
